In US20030216471A1, “Retinoid formulations for aerosolization and inhalation” (priority 2003, published 2003):
“Also recorded” adds a separate entry of the source. Marks after values point to notes of the source that are not given here.

Tested on: A/J mice
Assay: Lung carcinogenesis model: carcinogen-treated A/J mice exposed to isotretinoin aerosols
Assay type: in vivo, mouse
Conditions: for Efficacy (Carcinogen): 10-16 weeks; for non-significant reduction of tumor multiplicity: low dose; for reduction in multiplicity of tumor nodules: mid isotretinoin dose
Text: The A/J mouse is a well-established animal model for preclinical chemoprevention studies. This strain has a hereditary predisposition for lung cancer, the so-called pulmonary adenoma susceptibility (Pas) genes. A strong candidate for one of these genes, Pas-1, is the K-ras protooncogene. Carcinogenesis in this model with NNK as the inciting agent has been studied so that the times required to develop hyperplastic areas, adenomas, and carcinomas are well known. In addition, the timing of molecular changes associated with carcinogenesis has been studied and are similar to those in humans. In both species, K-ras mutations are common early events.
Powdered isotretinoin was dissolved in 100% ethanol plus 0.1% α-tocopherol and 0.1% ascorbyl palmitate to give concentrations of isotretinoin ranging from 0.1 to 10 mg/ml. The formulations were prepared monthly. The solutions were protected from light and stored at −5° C. until use. Ultraviolet-visible spectrophotometric verification of the formulated test article concentration was performed on all batches in advance of inhalation treatments with the test article solution. Only formulations within ±10% of the targeted concentration were used on study.
Within 24 h of the last inhalation exposure, animals were euthanized by intraperitoneal injection of pentobarbital and their lungs were removed and fixed in Bouin's solution or flash frozen for RAR determination. The lungs were evaluated in a blinded fashion so that neither carcinogen nor isotretinoin dose levels were known to the evaluator, who visually counted hyperplastic areas and adenomas on the lung pleural surface as previously described. The significance of the differences between the mean tumor incidence of the treatment and the control groups was determined using the Mann-Whitney Rank Sum test (Statmost TM, DataMost Corp., Sandy, Utah).

[1] = BaP, weekly pulmonary dose 0.25 mg/kg
[2] = BaP, weekly pulmonary dose 4.0 mg/kg
[3] = NNK and BaP, A/J mice, inhalation
[4] = NNK, weekly pulmonary dose 0.25 mg/kg
[5] = NNK, weekly pulmonary dose 4.0 mg/kg
[6] = Urethane, weekly pulmonary dose 0.25 mg/kg
[7] = Urethane, weekly pulmonary dose 4.0 mg/kg

CC1=C(/C=C/C(C)=C/C=C/C(C)=C\C(=O)O)C(C)(C)CCC1 [13-cis RA, 13-cis-Retinoic Acid]
Efficacy (Carcinogen) (0.24 mg/kg weekly total deposited (inh), NNK, BaP, Maybe = trend for efficacy): Maybe
Efficacy (Carcinogen) (0.24 mg/kg weekly total deposited (inh), urethane): No
Efficacy (Carcinogen) (1.6 mg/kg weekly total deposited (inh), NNK, BaP): Yes
Efficacy (Carcinogen) (1.6 mg/kg weekly total deposited (inh), urethane): No
Efficacy (Carcinogen) (24.9 mg/kg weekly total deposited (inh), urethane, NNK, BaP): Yes (urethane, NNK, BaP)
Hyperplastic Areas Per Lung Set (Mean ± SE) (BaP, weekly pulmonary dose 0.04 mg/kg, vehicle control 0.2): 0.8 ± 0.3
Tumors Per Lung Set (Mean ± SE) (BaP, weekly pulmonary dose 0.04 mg/kg, vehicle control 9.0): 6.4 ± 0.7^f
Total Lesions Per Lung Set (Mean ± SE) (BaP, weekly pulmonary dose 0.04 mg/kg, vehicle control 9.2): 7.2 ± 0.8
Hyperplastic Areas Per Lung Set (Mean ± SE) [1]: 3.2 ± 0.4^d
Total Lesions Per Lung Set (Mean ± SE) [1]: 6.1 ± 0.5^b
Tumors Per Lung Set (Mean ± SE) [1]: 3.0 ± 0.5^d
Hyperplastic Areas Per Lung Set (Mean ± SE) [2]: 3.3 ± 0.9^d
Total Lesions Per Lung Set (Mean ± SE) [2]: 5.2 ± 1.0^b
Tumors Per Lung Set (Mean ± SE) [2]: 1.8 ± 0.5^d
weekly pulmonary dose with evidence of efficacy (as low as) [3]: 0.25 mg/kg
weekly pulmonary dose with suggested efficacy [3]: 0.04 mg/kg
Hyperplastic Areas Per Lung Set (Mean ± SE) (NNK, weekly pulmonary dose 0.04 mg/kg, vehicle control 1.3): 2.0 ± 0.4
Tumors Per Lung Set (Mean ± SE) (NNK, weekly pulmonary dose 0.04 mg/kg, vehicle control 2.5): 2.1 ± 0.3^e
Total Lesions Per Lung Set (Mean ± SE) (NNK, weekly pulmonary dose 0.04 mg/kg, vehicle control 3.8): 4.1 ± 0.6
Hyperplastic Areas Per Lung Set (Mean ± SE) [4]: 3.3 ± 0.3^d
Total Lesions Per Lung Set (Mean ± SE) [4]: 3.6 ± 0.3
Tumors Per Lung Set (Mean ± SE) [4]: 0.3 ± 0.2^d
Hyperplastic Areas Per Lung Set (Mean ± SE) [5]: 3.8 ± 0.6^c
Total Lesions Per Lung Set (Mean ± SE) [5]: 4.5 ± 0.7
Tumors Per Lung Set (Mean ± SE) [5]: 0.8 ± 0.3^d
Hyperplastic Areas Per Lung Set (Mean ± SE) (Urethane, weekly pulmonary dose 0.04 mg/kg, vehicle control 4.6): 3.6 ± 1.1
Tumors Per Lung Set (Mean ± SE) (Urethane, weekly pulmonary dose 0.04 mg/kg, vehicle control 24.2): 25.7 ± 1.7
Total Lesions Per Lung Set (Mean ± SE) (Urethane, weekly pulmonary dose 0.04 mg/kg, vehicle control 29.2): 29.3 ± 1.5
Hyperplastic Areas Per Lung Set (Mean ± SE) [6]: 5.9 ± 1.2
Total Lesions Per Lung Set (Mean ± SE) [6]: 32.2 ± 2.4
Tumors Per Lung Set (Mean ± SE) [6]: 26.4 ± 2.1
Hyperplastic Areas Per Lung Set (Mean ± SE) [7]: 5.3 ± 1.3
Total Lesions Per Lung Set (Mean ± SE) [7]: 15.9 ± 1.9^d
Tumors Per Lung Set (Mean ± SE) [7]: 10.6 ± 1.2^d
effect of treatment on numbers of tumors (low (lowest) isotretinoin dose): not affected by treatment at the 95% confidence level; also recorded: not significantly effective
non-significant reduction of tumor multiplicity (BaP-treated mice (p<0.13)): 30%
non-significant reduction of tumor multiplicity (NNK-treated mice (p<0.30)): 16%
reduction in multiplicity of tumor nodules (BaP-treated mice): 67%
reduction in multiplicity of tumor nodules (NNK-treated mice): 88%
